ChEMBL document CHEMBL1201862, “PubChem BioAssay data set” (2004)
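Growth conditions: 96-well plates. Treatment: test compound, 48 hours, 5 concentrations. Analysis: linear interpolation between bracketing concentrations; unreached endpoints set to highest concentration. GI50 = concentration required for 50% inhibition of growth.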 Calls of active or inactive are those of the source. Rule as the data show it: active = GI50 up to about 1.1 µM and inactive = higher.

Columns and labels:
Experiment in all cases: DTP human tumour cell line panel, 48 h
HCT-116 = test system: HCT-116
SK-MEL-5 = test system: SK-MEL-5
RXF 393 = test system: RXF 393
RPMI-8226 = test system: RPMI-8226
COLO 205 = test system: COLO 205
UACC-62 = test system: UACC-62
UO-31 = test system: UO-31
LOX IMVI = test system: LOX IMVI
ACHN = test system: ACHN
MDA-N = test system: MDA-N
Hs-578T = test system: Hs-578T
SF-295 = test system: SF-295
HCT-15 = test system: HCT-15
SNB-19 = test system: SNB-19
CAKI-1 = test system: CAKI-1
A498 = test system: A498
SNB-75 = test system: SNB-75
HOP-62 = test system: HOP-62
NCI/ADR-RES = test system: NCI/ADR-RES
NCI-H522 = test system: NCI-H522

**Q.** What does the source list for CCCCCCCCCCCCCCCC(=O)ON1C(=S)NC(C)(c2ccccc2)C1=S (centres undefined)?
**A.** GI50 (HCT-116): > 100 µM (inactive); GI50 (SK-MEL-5): > 100 µM (inactive); GI50 (RXF 393): > 100 µM (inactive); GI50 (RPMI-8226): > 100 µM (inactive); GI50 (COLO 205): > 100 µM (inactive); GI50 (UACC-62): > 100 µM (inactive); GI50 (UO-31): > 100 µM (inactive); GI50 (LOX IMVI): 45.2 µM (inactive); GI50 (ACHN): > 100 µM (inactive); GI50 (MDA-N): > 100 µM (inactive); GI50 (Hs-578T): > 100 µM (inactive); GI50 (SF-295): 2.11 µM (inactive); GI50 (HCT-15): 51.4 µM; GI50 (SNB-19): > 100 µM (inactive); GI50 (CAKI-1): > 100 µM (inactive); GI50 (A498): > 100 µM (inactive); GI50 (SNB-75): > 100 µM (inactive); GI50 (HOP-62): > 100 µM (inactive); GI50 (NCI/ADR-RES): > 100 µM (inactive)

**Q.** How did the GI50 (HCT-116) turn out when CCOc1ccc2c(c1)NC(=O)C(C1OC(c3ccccc3)=CC1=O)S2 (centres undefined) was run?
**A.** 35.6 µM (inactive)

**Q.** What about the GI50 (SK-MEL-5) of the same compound?
**A.** 18.8 µM (inactive)

**Q.** And the GI50 (RXF 393)?
**A.** 19.7 µM (inactive)

**Q.** What about the GI50 (RPMI-8226) of the same compound?
**A.** 12 µM (inactive)

**Q.** What about the GI50 (COLO 205) of the same compound?
**A.** 14 µM (inactive)

**Q.** What about the GI50 (UACC-62) of the same compound?
**A.** 15 µM (inactive)

**Q.** And the GI50 (UO-31)?
**A.** 29.3 µM (inactive)

**Q.** And the GI50 (LOX IMVI)?
**A.** 23.2 µM (inactive)

**Q.** And the GI50 (NCI-H522)?
**A.** 10.4 µM (inactive)

**Q.** And the GI50 (ACHN)?
**A.** 37.2 µM (inactive)

**Q.** And the GI50 (MDA-N)?
**A.** 25.1 µM (inactive)

**Q.** What about the GI50 (Hs-578T) of the same compound?
**A.** 27.5 µM (inactive)

**Q.** What about the GI50 (SF-295) of the same compound?
**A.** 27 µM (inactive)

**Q.** And the GI50 (HCT-15)?
**A.** 21.8 µM

**Q.** What about the GI50 (SNB-19) of the same compound?
**A.** 59.8 µM (inactive)

**Q.** What about the GI50 (CAKI-1) of the same compound?
**A.** 34.5 µM (inactive)

**Q.** And the GI50 (A498)?
**A.** > 100 µM (inactive)

**Q.** And the GI50 (HOP-62)?
**A.** 53.2 µM (inactive)

**Q.** What about the GI50 (NCI/ADR-RES) of the same compound?
**A.** 24.9 µM (inactive)

**Q.** Which results are given for CN(C)CC1CCC/C(=C\c2ccc(OC(=O)/C=C/c3ccccc3)cc2)C1=O (centres undefined)?
**A.** GI50 (HCT-116): 1.34 µM (inactive); GI50 (SK-MEL-5): 3.64 µM (inactive); GI50 (RXF 393): 1.93 µM (inactive); GI50 (RPMI-8226): 0.656 µM (active); GI50 (COLO 205): 1.99 µM (inactive); GI50 (UACC-62): 3.34 µM (inactive); GI50 (UO-31): 1.83 µM (inactive); GI50 (LOX IMVI): 0.538 µM (active); GI50 (ACHN): 2.51 µM (inactive); GI50 (MDA-N): 2.52 µM (inactive); GI50 (Hs-578T): 3.28 µM (inactive); GI50 (SF-295): 3.56 µM (inactive); GI50 (HCT-15): 1.56 µM; GI50 (SNB-19): 5.35 µM (inactive); GI50 (CAKI-1): 1.82 µM (inactive); GI50 (A498): 7.28 µM (inactive); GI50 (SNB-75): 6.04 µM (inactive); GI50 (HOP-62): 3.48 µM (inactive); GI50 (NCI/ADR-RES): 1.94 µM (inactive)

**Q.** For CCCCCCCCCCCCCCCC(=O)OCC(COP(=O)(O)OCCNC(=O)CCSSc1ccccn1)OC(=O)CCCCCCCCCCCCCCC (centres undefined), which GI50 (HCT-116) is on record?
**A.** > 100 µM (inactive)

**Q.** And the GI50 (SK-MEL-5)?
**A.** > 100 µM (inactive)

**Q.** And the GI50 (RXF 393)?
**A.** > 100 µM (inactive)

**Q.** What about the GI50 (RPMI-8226) of the same compound?
**A.** > 100 µM (inactive)

**Q.** What about the GI50 (COLO 205) of the same compound?
**A.** > 100 µM (inactive)

**Q.** And the GI50 (UACC-62)?
**A.** > 100 µM (inactive)

**Q.** What about the GI50 (UO-31) of the same compound?
**A.** > 100 µM (inactive)

**Q.** And the GI50 (NCI-H522)?
**A.** > 100 µM (inactive)

**Q.** What about the GI50 (ACHN) of the same compound?
**A.** > 100 µM (inactive)

**Q.** And the GI50 (MDA-N)?
**A.** > 100 µM (inactive)

**Q.** And the GI50 (Hs-578T)?
**A.** > 100 µM (inactive)

**Q.** What about the GI50 (SF-295) of the same compound?
**A.** > 100 µM (inactive)

**Q.** And the GI50 (HCT-15)?
**A.** > 100 µM

**Q.** What about the GI50 (SNB-19) of the same compound?
**A.** > 100 µM (inactive)

**Q.** And the GI50 (CAKI-1)?
**A.** > 100 µM (inactive)

**Q.** And the GI50 (A498)?
**A.** > 100 µM (inactive)

**Q.** And the GI50 (SNB-75)?
**A.** > 100 µM (inactive)

**Q.** What about the GI50 (HOP-62) of the same compound?
**A.** > 100 µM (inactive)

**Q.** And the GI50 (NCI/ADR-RES)?
**A.** > 100 µM (inactive)

**Q.** Which GI50 (HCT-116) does the source give for CCOC(=O)C(NC(=O)CC)(Nc1ccc(F)cc1F)C(F)(F)F (centres undefined) here?
**A.** > 100 µM (inactive)

**Q.** What about the GI50 (SK-MEL-5) of the same compound?
**A.** > 100 µM (inactive)

**Q.** And the GI50 (RXF 393)?
**A.** > 100 µM (inactive)

**Q.** And the GI50 (RPMI-8226)?
**A.** > 100 µM (inactive)

**Q.** And the GI50 (COLO 205)?
**A.** > 100 µM (inactive)

**Q.** And the GI50 (UO-31)?
**A.** 11.8 µM (inactive)

**Q.** What about the GI50 (LOX IMVI) of the same compound?
**A.** > 100 µM (inactive)

**Q.** And the GI50 (ACHN)?
**A.** > 100 µM (inactive)

**Q.** And the GI50 (MDA-N)?
**A.** 31.9 µM (inactive)

**Q.** What about the GI50 (Hs-578T) of the same compound?
**A.** 18.2 µM (inactive)

**Q.** What about the GI50 (HCT-15) of the same compound?
**A.** > 100 µM

**Q.** What about the GI50 (SNB-19) of the same compound?
**A.** > 100 µM (inactive)

**Q.** What about the GI50 (CAKI-1) of the same compound?
**A.** 1.31 µM (inactive)

**Q.** And the GI50 (A498)?
**A.** > 100 µM (inactive)

**Q.** And the GI50 (SNB-75)?
**A.** 83 µM (inactive)

**Q.** What about the GI50 (NCI/ADR-RES) of the same compound?
**A.** > 100 µM (inactive)

**Q.** Which GI50 (HCT-116) does the source give for CC1(C)N=[N+]([O-])C1(C)C here?
**A.** > 100 µM (inactive)

**Q.** And the GI50 (SK-MEL-5)?
**A.** > 100 µM (inactive)

**Q.** What about the GI50 (RXF 393) of the same compound?
**A.** > 100 µM (inactive)

**Q.** And the GI50 (RPMI-8226)?
**A.** > 100 µM (inactive)

**Q.** What about the GI50 (COLO 205) of the same compound?
**A.** > 100 µM (inactive)

**Q.** And the GI50 (UACC-62)?
**A.** > 100 µM (inactive)

**Q.** And the GI50 (UO-31)?
**A.** > 100 µM (inactive)

**Q.** What about the GI50 (LOX IMVI) of the same compound?
**A.** > 100 µM (inactive)

**Q.** And the GI50 (NCI-H522)?
**A.** > 100 µM (inactive)

**Q.** What about the GI50 (MDA-N) of the same compound?
**A.** > 100 µM (inactive)

**Q.** And the GI50 (Hs-578T)?
**A.** > 100 µM (inactive)

**Q.** And the GI50 (HCT-15)?
**A.** > 100 µM

**Q.** What about the GI50 (SNB-19) of the same compound?
**A.** > 100 µM (inactive)

**Q.** And the GI50 (CAKI-1)?
**A.** > 100 µM (inactive)

**Q.** What about the GI50 (A498) of the same compound?
**A.** > 100 µM (inactive)

**Q.** What about the GI50 (SNB-75) of the same compound?
**A.** > 100 µM (inactive)

**Q.** What about the GI50 (NCI/ADR-RES) of the same compound?
**A.** > 100 µM (inactive)
